Experiments:
[1] = target: T1, G12C K-Ras4B (1-169) (Homo sapiens, UniProt P01116, G12C); assay: Binding to KRAS G12C mutant, compound binding rate by LC-MS; conditions: final compound concentration 2 μM, 1 μM protein, 2 hours at 25° C.
T1 construct: G12C K-Ras4B (1-169) protein, which was a KRAS G12C mutant; His tag (N, cleaved yes); made in house; host or cells: E. coli BL21 (DE3)
Excerpt: K-Ras4B (1-169) protein was expressed in E. coli strain BL21 (DE3) by synthesizing a nucleotide sequence encoding the amino acid sequence represented by GenPept ID NP_004976 as a sequence optimized for E. coli by use of GeneArt Technology (Life Technologies Corp.) such that the protein was N-terminally His-tagged and fused with a TEV protease recognition sequence (ENLYFQG). The expressed His-tagged K-Ras4B (1-169) was purified through a Ni column, then cleaved at its tag with N-terminally His-tagged TEV protease, and passed through a Ni column again to recover a flow-through fraction, which was further purified by anion-exchange chromatography to obtain the protein. G12C K-Ras4B (1-169) protein, which was a KRAS G12C mutant, was obtained in the same way as in the K-Ras4B(1-169) protein except that glycine at position 12 of the amino acid sequence represented by GenPept ID NP_004976 was mutated to cysteine.
The K-Ras4B (1-169) protein and the G12C K-Ras4B (1-169) protein were mixed and diluted with a buffer solution (1×TBS and 0.1 mM TCEP) to prepare a protein solution containing 1 μM each of the proteins. Each test compound was dissolved at 10 mM in DMSO and further diluted 10-fold with DMSO to make a 1 mM solution. Then, the solution was diluted 5-fold with DMSO to make a 200 μM solution. The 200 μM solution was further diluted 5-fold to make a […] solution. 1 μL of the 40 μM test compound was added to 19 μL of the 1 μM protein solution such that the final compound concentration was 2 μM. The mixture was stored for 2 hours in an incubator of 25° C., and the reaction was terminated by the addition of 80 μL of a 1×TBS solution containing 0.2% formic acid, followed by LC-MS measurement.
The LC-MS measurement was performed by using Xevo G2-S Q-Tof manufactured by Waters Corp., performing reverse-phase chromatography with a desalting column, and obtaining mass spectra of positive ions by electrospray. For the mass spectra, spectra of polyvalent ions were collectively converted to molecular weights by the MaxEnt technique using OpenLynx software, and then, a compound binding rate was obtained from the ratio of […].
The binding rates of test compounds having a final compound concentration of 2 μM for G12C K-Ras4B (1-169) are shown in the table below. The binding rate for G12C K-Ras4B (1-169) is rated “A” for 80% or more, “B” for 60% or more and less than 80%, “C” for 40% or more and less than 60%, “D” for 20% or more and less than 40%, and “E” for less than 20%.

[2] = target: T2, KRAS G12C mutant (Homo sapiens, UniProt P01116, G12C); assay: Inhibition of SOS1-mediated nucleotide (GDP-GTP) exchange reaction of KRAS G12C mutant, BODIPY FL GDP fluorescence; assay type: biochemical; conditions: preincubated 25° C. 4 hours with 25 nM KRAS G12C bound with BODIPY FL GDP; SOS1 100 nM, GppNHp 1 μM, 30 minutes
T2 construct: 50 μM G12C K-Ras4B (1-169) protein and 1 mM BODIPY® FL GDP; His tag (N, cleaved yes); made in house; host or cells: E. coli BL21 (DE3)
Excerpt: SOS1 protein was expressed in E. coli strain BL21 (DE3) by synthesizing a nucleotide sequence encoding the amino acid sequence represented by GenPept ID NP_005624 as a sequence optimized for E. coli by use of GeneArt Technology (Life Technologies Corp.) such that the protein was N-terminally His-tagged and fused with a TEV protease recognition sequence (ENLYFQG). The expressed His-tagged SOS1 (564-1049) was purified through a Ni column, then cleaved at its tag with N-terminally His-tagged TEV protease, and passed through a Ni column again to recover a flow-through fraction to obtain the protein.
Each compound was studied for its inhibitory effect on the exchange reaction of GDP into GppNHp in BODIPY® FL bound with the KRAS G12C mutant by fluorescence measurement using the G12C K-Ras4B (1-169) protein and the SOS1 protein.
For the preparation of the KRAS G12C mutant bound with BODIPY® FL GDP, first, 50 μM G12C K-Ras4B (1-169) protein and 1 mM BODIPY® FL GDP (Invitrogen Corp., G22360) were incubated for 1 hour in a buffer solution (20 mM Tris-HCl (pH 7.5), 50 mM NaCl, and 1 mM DTT) in ice in the presence of 2.5 mM EDTA. Then, MgCl2 was added thereto at a final concentration of 10 mM, then the mixture was incubated at room temperature for 30 minutes, and then, the protein was passed through a NAP-5 column for removal of free nucleotides and used for compound evaluation.
For the measurement of the inhibitory activity of compounds against nucleotide exchange reaction, first, the compound of the present invention was serially diluted with DMSO. Subsequently, the serially diluted solution of the compound of the present invention in DMSO (final concentration of DMSO: 5%) and the KRAS G12C mutant (25 nM) bound with BODIPY® FL GDP were added into a reaction buffer solution (20 mM Tris-HCl (pH 7.5), 100 mM NaCl, 1 mM MgCl2, 2 mM DTT, and 0.1% Tween 20), and the mixture was preincubated at 25° C. for 4 hours. Then, Son of Sevenless Homolog 1 (SOS1, amino acid region: 564-1049) and GppNHp (GMPPNP, Jena Bioscience GmbH, NU-401-50) were added thereto at final concentrations of 100 nM and 1 μM, respectively, and the mixture was reacted for 30 minutes. The change in fluorescence intensity of BODIPY® FL (excitation wavelength: 485 nm, fluorescence wavelength: 520 nm) between immediately after the start of reaction and after 30 minutes from the start of reaction was standardized, and then, the compound concentration at which 50% inhibition was achieved was calculated as IC50 (nM) when the signal value for only DMSO was defined as 0% inhibition and the signal value for no addition of GppNHp was defined as 100% inhibition.

C=CC(=O)N1CC(NC(=O)c2ccc(CNc3cc(C(C)(C)C)c(Br)cc3O)o2)C1 [Example 65, N-(1-Acryloylazetidin-3-yl)-5-(((4-bromo-5-(tert-butyl)-2-hydroxyphenyl)amino)methyl)furan-2-carboxamide]
binding rate for G12C K-Ras4B (1-169) [1]: A (80% or more)
IC50 [2]: 353 nM

C=CC(=O)N1CC(NC(=O)c2ccc(CNc3cc(C(=C)C)c(Cl)cc3O)o2)C1 [Example 47, N-(1-Acryloylazetidin-3-yl)-5-(((4-chloro-2-hydroxy-5-(prop-1-en-2-yl)phenyl)amino)methyl)furan-2-carboxamide]
binding rate for G12C K-Ras4B (1-169) [1]: D (20% or more and less than 40%)
IC50 [2]: 4740 nM

C=CC(=O)N1CC(N(C)C(=O)c2sc(CNc3cc(C(C)(C)C)c(Cl)cc3O)nc2C)C1 [Example 35, N-(1-Acryloylazetidin-3-yl)-2-(((5-(tert-butyl)-4-chloro-2-hydroxyphenyl)amino)methyl)-N,4-dimethylthiazole-5-carboxamide]
binding rate for G12C K-Ras4B (1-169) [1]: E (less than 20%)
IC50 [2]: 463 nM

C=CC(=O)N1CC(NC(=O)c2ccc(CNc3cc(C(C)(C)C)c(Cl)cc3O)cc2)C1 [Example 3, N-(1-Acryloylazetidin-3-yl)-4-(((5-(tert-butyl)-4-chloro-2-hydroxyphenyl)amino)methyl)benzamide]
binding rate for G12C K-Ras4B (1-169) [1]: B (60% or more and less than 80%)
IC50 [2]: 753 nM

C=CC(=O)N1CC(NC(=O)c2cnc(CNc3cc(C(C)C(F)(F)F)c(Cl)cc3O)n2C)C1 (centres unmarked) [Example 59, N-(1-Acryloylazetidin-3-yl)-2-(((4-chloro-2-hydroxy-5-(1,1,1-trifluoropropan-2-yl)phenyl)amino)methyl)-1-methyl-1H-imidazole-5-carboxamide]
binding rate for G12C K-Ras4B (1-169) [1]: B (60% or more and less than 80%)
IC50 [2]: 140 nM

C=CC(=O)N1CC(NC(=O)c2cnc(CNc3nc(C(C)(C)C)c(Cl)cc3O)n2C)C1 [Example 83, N-(1-Acryloylazetidin-3-yl)-2-(((6-(tert-butyl)-5-chloro-3-hydroxypyridin-2-yl)amino)methyl)-1-methyl-1H-imidazole-5-carboxamide]
binding rate for G12C K-Ras4B (1-169) [1]: B (60% or more and less than 80%)
IC50 [2]: 23 nM

C=CC(=O)N1CC(N(C)C(=O)c2cnc(CNc3cc(C(C)(C)C)c(Cl)cc3O)s2)C1 [Example 31, N-(1-Acryloylazetidin-3-yl)-2-(((5-(tert-butyl)-4-chloro-2-hydroxyphenyl)amino)methyl)-N-methylthiazole-5-carboxamide]
binding rate for G12C K-Ras4B (1-169) [1]: C (40% or more and less than 60%)
IC50 [2]: 247 nM

C=CC(=O)N1CC(NC(=O)c2cnc(CNc3cc(C(F)(F)F)c(Cl)cc3O)n2C)C1 [Example 54, N-(1-Acryloylazetidin-3-yl)-2-(((4-chloro-2-hydroxy-5-(trifluoromethyl)phenyl)amino)methyl)-1-methyl-1H-imidazole-5-carboxamide]
binding rate for G12C K-Ras4B (1-169) [1]: C (40% or more and less than 60%)
IC50 [2]: 420 nM

C=CC(=O)N1CC(NC(=O)c2nc(CNc3cc(C(C)(C)C)c(Cl)cc3O)cs2)C1 [Example 10, N-(1-Acryloylazetidin-3-yl)-4-(((5-(tert-butyl)-4-chloro-2-hydroxyphenyl)amino)methyl)thiazole-2-carboxamide]
binding rate for G12C K-Ras4B (1-169) [1]: A (80% or more)
IC50 [2]: 67 nM

C=CC(=O)N1CC(NC(=O)c2c(C)nc(Cc3cc(C(C)(C)C)c(F)cc3O)n2C)C1 [Example 94, N-(1-Acryloylazetidin-3-yl)-2-(5-(tert-butyl)-4-fluoro-2-hydroxybenzyl)-1,4-dimethyl-1H-imidazole-5-carboxamide]
binding rate for G12C K-Ras4B (1-169) [1]: C (40% or more and less than 60%)
IC50 [2]: 170 nM

C=CC(=O)N1CC(NC(=O)c2ccc(CNc3cc(C(C)(C)C)ccc3O)o2)C1 [Example 66, N-(1-Acryloylazetidin-3-yl)-5-(((5-(tert-butyl)-2-hydroxyphenyl)amino)methyl)furan-2-carboxamide]
binding rate for G12C K-Ras4B (1-169) [1]: E (less than 20%)
IC50 [2]: 9800 nM

C=CC(=O)N1CC(NC(=O)c2cnc(CNc3nc([Si](C)(C)C)c(Cl)cc3O)n2C)C1 [Example 84, N-(1-Acryloylazetidin-3-yl)-2-(((5-chloro-3-hydroxy-6-(trimethylsilyl)pyridin-2-yl)amino)methyl)-1-methyl-1H-imidazole-5-carboxamide]
binding rate for G12C K-Ras4B (1-169) [1]: A (80% or more)
IC50 [2]: 63 nM

C=CC(=O)N1CC(NC(=O)c2c(C)nc(C(O)c3cc(C(C)(C)C)c(Cl)cc3O)n2C)C1 (centres unmarked) [Example 91, N-(1-Acryloylazetidin-3-yl)-2-((5-(tert-butyl)-4-chloro-2-hydroxyphenyl) (hydroxy)methyl)-1,4-dimethyl-1H-imidazole-5-carboxamide]
binding rate for G12C K-Ras4B (1-169) [1]: D (20% or more and less than 40%)
IC50 [2]: 128 nM

C=CC(=O)N1CC(NC(=O)c2cnc(CNc3cc(C(C)(C)C)cc(C)c3O)n2C)C1 [Example 74, N-(1-Acryloylazetidin-3-yl)-2-(((5-(tert-butyl)-2-hydroxy-3-methylphenyl)amino)methyl)-1-methyl-1H-imidazole-5-carboxamide]
binding rate for G12C K-Ras4B (1-169) [1]: E (less than 20%)
IC50 [2]: 701 nM

C=CC(=O)N1CC(NC(=O)c2cnc(CNc3cc(CCC)c(Cl)cc3O)n2C)C1 [Example 64, N-(1-Acryloylazetidin-3-yl)-2-(((4-chloro-2-hydroxy-5-propylphenyl)amino)methyl)-1-methyl-1H-imidazole-5-carboxamide]
binding rate for G12C K-Ras4B (1-169) [1]: D (20% or more and less than 40%)
IC50 [2]: 366 nM

C=CC(=O)N1CC(NC(=O)c2cnc(CNc3cc(C4(C)CC4(F)F)c(Cl)cc3O)n2C)C1 (centres unmarked) [Example 63, N-(1-Acryloylazetidin-3-yl)-2-(((4-chloro-5-(2,2-difluoro-1-methylcyclopropyl)-2-hydroxyphenyl)amino)methyl)-1-methyl-1H-imidazole-5-carboxamide]
binding rate for G12C K-Ras4B (1-169) [1]: A (80% or more)
IC50 [2]: 37 nM
